What was measured:
[1] = system: hippocampal LTP in healthy rats; assay: Hippocampal LTP in slices from healthy rats treated in vivo; parameters: species or system rat; conditions: 2 mg/kg i.p. each day during 7 days (P21-P27)
Method: At P28-38, Sprague-Dawley rats were anesthetized with isoflurane, the forebrain was removed and placed in ice cold standard artificial cerebrospinal fluid (ACSF), consisting of (in mM): 124 NaCl, 5 KCl, 1.25 Na2HPO4, 2 MgSO4, 2 CaCl2), 26 NaHCO3, supplemented with 10 D-glucose, and bubbled with 95% O2 and 5% CO2. Hippocampal transverse slices were cut into 350 μm thick sections, using a vibratome (Leica VT1000S), and incubated in ACSF at room temperature for at least 1 h, before the transfer to the recording chamber. The ACSF used for perfusion was supplemented with picrotoxin (100 μM; Sigma-Aldrich), to block GABA-A receptors and therefore to facilitate the induction of NMDA receptors-dependent Long-Term Potentiation (LTP). […] Series resistance was continually monitored, and experiments were discarded if it changed by >20%.
Capillary glass pipettes filled with ACSF and connected to an Iso-Flex stimulus isolation unit (A.M.P.I.) were placed in stratum radiatum, to evoke excitatory postsynaptic potentials (EPSPs) in CA1 pyramidal neurons. […] LTP was induced by the theta burst pairing (TBP) protocol, which consisted of EPSPs paired with single back-propagating action potentials (b-APs), timed so that the b-AP (~15 ms delay) occurred at the peak of the EPSPs, as measured in the soma. […]

[2] = system: hippocampal LTP in rats subjected to Pilo-SE; assay: Hippocampal LTP in slices from Pilo-SE rats treated in vivo (i.p. or per os); parameters: species or system rat; conditions: 1 h after cessation of SE then daily
Method: In this experiment we used male Sprague-Dawley rats (ENVIGO, Netherlands). Pups were received at 14 day-old (postnatal day 14 (P14)) with their foster mother, and were maintained in groups of 10 in plastic cages (405 mm×255 mm×197 mm) with free access to food and water. All animal procedures are in accordance with the guidelines of the Animal Care and Use Committee of the University Claude Bernard Lyon 1.
All injected solutions were prepared in sterile saline (0.9% w/v). At weaning (postnatal day 20 (P20)), Sprague-Dawley male rat pups were first injected i.p. with lithium chloride (127 mg/Kg; Sigma-Aldrich), to decrease the dose of pilocarpine needed to trigger Status Epilepticus (SE). Scopolamine methylnitrate (1 mg/Kg; Sigma-Aldrich) was injected s.c. 18 h later, to alleviate peripheral cholinergic adverse side effects. Pilocarpine hydrochloride (25 mg/Kg; Sigma-Aldrich) was injected i.p. 30 min later, to induce SE. […] The rats were placed on a heated pad, under continuous observation, until they recovered from sedation. Following recovery, the rats were returned to the nursing mother until P23. Control rats only received saline injections. All rats were then housed in groups of 10 and weighed daily, during the 5 following days, to control for food intake, and then twice weekly until the end of experiment (three weeks post SE).
At P28-38, Sprague-Dawley rats were anesthetized with isoflurane, the forebrain was removed and placed in ice cold standard artificial cerebrospinal fluid (ACSF), consisting of (in mM): 124 NaCl, 5 KCl, 1.25 Na2HPO4, 2 MgSO4, 2 CaCl2), 26 NaHCO3, supplemented with 10 D-glucose, and bubbled with 95% O2 and 5% CO2. Hippocampal transverse slices were cut into 350 μm thick sections, using a vibratome (Leica VT1000S), and incubated in ACSF at room temperature for at least 1 h, before the transfer to the recording chamber. The ACSF used for perfusion was supplemented with picrotoxin (100 μM; Sigma-Aldrich), to block GABA-A receptors and therefore to facilitate the induction of NMDA receptors-dependent Long-Term Potentiation (LTP). CA1 pyramidal cells were visualized with a Zeiss Axioskop 2, equipped with a X40 objective, using infrared video microscopy and differential interference contrast optics. Whole-cell recordings from pyramidal neurons in the CA1 layer were obtained with patch electrodes, which were filled with a solution containing (in mM): 120 potassium gluconate, 20 KCl, 0.2 EGTA, 2 MgCl2, 10 HEPES, 4 Na2ATP, 0.3 Tris-GTP and 14 mM phosphocreatine (pH 7.3, adjusted with KOH). Drugs were applied in the bath of the hippocampal slices. Electrode resistances ranged from 3-5 MΩ. Series resistance was continually monitored, and experiments were discarded if it changed by >20%.
Capillary glass pipettes filled with ACSF and connected to an Iso-Flex stimulus isolation unit (A.M.P.I.) were placed in stratum radiatum, to evoke excitatory postsynaptic potentials (EPSPs) in CA1 pyramidal neurons. Cells were held at −70 mV to record EPSPs, and the stimulation strength was set to evoke EPSPs between 5-8 mV. LTP was induced by the theta burst pairing (TBP) protocol, which consisted of EPSPs paired with single back-propagating action potentials (b-APs), timed so that the b-AP (~15 ms delay) occurred at the peak of the EPSPs, as measured in the soma. A single burst contained five pairs delivered at 100 Hz and ten bursts were delivered at 5 Hz per sweep. Three sweeps were delivered at 10 s intervals for a total of 30 bursts (150 b-AP-EPSP pairs). The b-APs were elicited by direct somatic current injection (1 ms, 1-2 nA). This induction protocol was always applied within 20 min of achieving whole-cell configuration, to avoid “wash-out” of LTP.

[3] = system: Pilo-SE-induced inflammation in the hippocampus; assay: Resolution of inflammation in hippocampus following pilocarpine-induced status epilepticus (Pilo-SE); format: in vivo, rat; conditions: 2 mg/kg i.p. after 2 h of SE, hippocampus 9 h post-SE
Method: Male Sprague-Dawley rats (Envigo, The Netherlands) were subjected to Pilo-SE at 42 days of age (185 g). SE was triggered by pilocarpine hydrochlorate (350 mg/kg, i.p.), 30 min after the administration of scopolamine methylnitrate (1 mg/kg, s.c.), used to reduce peripheral side effects of pilocarpine. After 2 h of continuous SE, rats were administered with diazepam (10 mg/kg, i.p.) to stop SE, and then immediately treated with SYN (2 mg/kg, i.p.), SYN-Pn (2 mg/kg, i.p.) in 300 μL of NaCl. Non-treated rats subjected to Pilo-SE were injected with 300 μL of NaCl (i.p.) instead of SYN or SYN-Pn. All rats received a second administration of diazepam (5 mg/kg, s.c.), 1 h after the first one, and sacrificed 9 h post-SE. The brains were collected, the hippocampus microdissected on ice, the RNA extracted and RT-qPCR performed as described above using the primer pairs shown in Table 1. The time at which rats were sacrificed was chosen based on our preliminary experiments that allowed us to determine that the peak of brain inflammation was observed 7-12 hours after the onset of SE.

In the case of `CCC=CCC=CCC=CCC=CCC=CCC=CCCC(=O)NCCP(=O)(O)O` [synaptamide phosphonate], the “LTP magnitude (EPSP amplitude, % of baseline)” value [1] is reported as 212.11±12.9%, the “LTP magnitude (EPSP amplitude, % of baseline)” value ([2]; 2 mg/kg i.p.) is reported as 183.07±9.02% and the “LTP magnitude (EPSP amplitude, % of baseline)” value ([2]; 5 mg/kg i.p.) is reported as 162.4±11.9%. The “LTP magnitude (EPSP amplitude, % of baseline)” value ([2]; 10 mg/kg i.p.) was 162.78±12.23%, the “LTP magnitude (EPSP amplitude, % of baseline)” value ([2]; 10 mg/kg per os) was 110.7±4.7% and the “LTP magnitude (EPSP amplitude, % of baseline)” value ([2]; 30 mg/kg per os) was 146.16±10%. For the same molecule, the “LTP magnitude (EPSP amplitude, % of baseline)” value ([2]; 100 mg/kg per os) was 162.6±9.2%, the “TNFα-mRNA induction in response to Pilo-SE” value [3] was “significant effect” and the “index integrating IL1β and TNFα: peak of the inflammatory response following Pilo-SE” value [3] was “improved effect”. For the same molecule, the “induction of IL1β mRNA in response to Pilo-SE” value ([3]; 42-day-old rats) was “reduced”.
